Measured values published in patent publication US12582721B2, “Molybdenum-based feed supplement for bees” (UNIVERSITE DE VERSAILLES—SAINT-QUENTIN-EN-YVELINES, priority 2020, dated 2026).

What was measured:
[1] = system: families of European domestic bees; experiment: 1st test in hives: morpho-productive characters; format: in vivo, Apis mellifera carpatica; conditions: for Power of the bee family / Prolificity of the queen / Quantity of honey at the first harvest / Quantity of honey at the first harvest, change versus batch I: overall dose 2 mg per colony; for Power of the bee family / Prolificity of the queen / Quantity of honey at the first harvest: spring feeding, 10 hives; for Quantity of honey at the first harvest, change versus batch I: value in brackets; for Effects on the prolificity of the queen and the amount of honey collected compared to PPh4-Mo2O4-EDTA: 1st test, 2 mg per colony
Description: Biological field tests were performed on families of European domestic bees of the species Apis mellifera […] experimental apiary located in the […] forestry district (Republic of Moldova). Feeding with the complex of the invention took place in spring. The biological tests were monitored up to the month of September. To administer the compounds to the bees, a very small amount of bioactive substance was added to two types of sugary feeding products for bees: candy in the form of a paste (70% sucrose, 30% honey) or syrup (50% sucrose, 50% water). The bees were fed by adding the candy/syrup to the feeder located in the inner upper part of the hive. The volume of syrup was adjusted based on the number of bee frames at the initial time, more precisely 200 g of candy per frame and 100 mL of syrup per frame, that is 2 kg of candy and 1 L of syrup per hive of 10 frames. For the first feeding step, candy in the form of a paste was only given once. […] From the start of the test to the end (after the second harvest), all the bees were monitored for several key morpho-producing parameters that reflect the development level of the colony and the vital aspects of the bees. The parameters studied are: the prolificity of the queen (fertility), the power of the colonies, the production of honey and the production of wax. These parameters were monitored in line with the zootechnical standards concerning the assessment of bee families, breeding and certification of beekeeping parental material approved by government decision No. 306 dated Apr. 28, 2011 of the Republic of Moldova. The production of honey (in kg) was determined for each family of bees by adding the amount of honey produced (honey from supers), extracted during the harvest season, to the amount of honey built up in the honeycomb (brood chamber) and left as food for the bees for the winter period (brood honey). The amount of honey produced will be determined for each family, for each extraction, by weighing the frames/honeycomb before and after extraction (with an accuracy of 0.1 kg), the weight difference being the quantity of honey produced that was extracted. The amount of honey left in the honeycomb to feed the bees was determined at the autumn visit (September), by weighing the honey frames and deducting (from their total weight) the total weight of the standard honeycomb frames; for […] type frames (435×300 mm)-0.6 kg, for Langstroth frames (435×230 mm)-0.5 kg. The power of the bee colony represents the number of bees present in the honeycomb at the time of the assessment. The assessment is performed three times per year: at the spring visit (March-April), at the end of spring (20-31 May) and at the visit in autumn (September). After these three assessments, the average power of the bee family is determined. The amount of bees (kg) is determined by multiplying the number of intervals between the frames, uniformly occupied by the bees, by the coefficient 0.25 for the standard […] frame (435×300 mm) and by 0.2 for the standard Langstroth frame (435×230 mm). The prolificity of the queen (eggs/24 hours) is determined during the visit at the end of the spring (20-31 May) by dividing the number of cells with the brood by 12 (duration of development of the brood, days), the number of eggs laid in 24 hours. The number of cells in the honeycomb is determined using the Netz frame by measuring the number of squares (5×5 cm) occupied by the brood, which is multiplied by 100, to give the total number of cells with the brood covered. The molecules tested, their concentration in solution and their annual overall doses are listed below: • 1. […] The concentration of the complex in the syrup: 1.5×10^-7 mol/L. Overall and annual product dose: 2 mg of complex per colony • 2. […] The concentration of the complex in syrup: 3.0×10^-7 mol/L. Overall and annual product dose: 2 mg of complex per colony • 3. […] Overall and annual product dose: 2 mg of complex per colony • 4. […]

[2] = system: HeLa, BxPC-3 and MDCK cells; conditions: BxPc-3 and HeLa
Source text: For cell culture, human cervical epithelial cells of the HeLa line, human epithelial pancreatic adenocarcinoma cells of the BxPC-3 line and healthy Madin-Darby canine kidney epithelial cells of the MDCK line were used in this study. The Resazurin cell proliferation test was applied according to the literature (S. Anoopkumar-Dukie, J. B. Carey, T. Conere, E. O'Sullivan, F. N. van Pelt, A. Allshire, Br J Radiol 2005, 78, 945, DOI: 10.1259/bjr/54004230). As an indicator of the effectiveness of the experimental compounds on cell proliferation, the median inhibitory concentration (IC50) was used. The lower the IC50 value, the higher the activity (in this case, the cytotoxicity).

[3] = system: bee colonies; experiment: 4th test in the hives: winter mortality of colonies, California 2020; format: in vivo, bees; conditions: counted Dec. 31, 2020, 55 hives, Batch 1 27.3%
Description: A second treatment campaign was carried out in the autumn-winter 2020 in apiaries located in California, near San Francisco. This region is particularly vulnerable to winter mortality of bee colonies which can reach as high as 80% in some years.
220 hives distributed over 13 different apiaries in California to the south of San Francisco were selected. Each apiary comprised between 8 and 24 hives. The bees were of different types: 165 hives of Wildflower bees (VSH-Italian) and 55 hives of Beeweaver bees (VSH-Carniolan).
The hives were Langstroth 2 body type hives (15 frames compared to 10 for Dadant hives in Europe). […] 20, 2020 and Oct. 12, 2020.
1 apiary only contained Wildflower type bees. 2 apiaries only contained Beeweaver type bees. The other 10 apiaries comprised Wildflower and Beeweaver bees that were evenly distributed between the 4 batches.
The product Li—Mo2O4-EDTA was introduced on Sep. 20, 2020, and/or on Oct. 12, 2020 by syringe in the form of a concentrated aqueous solution (0.8 g/L) in a sugar syrup into the frame feeder. 10 mL of this solution were introduced and dispersed in 3.5 liters of sugar syrup at 65% sugar and introduced into the hive. […] The control hives only received sugar syrup.
The dead colonies were counted on Dec. 31, 2020. A total of 28 colonies were dead on 31 Dec. 2020, that is 12.73% of the total. The mortality rate is identical for Wildflower bees (21/165) and Beeweaver bees (7/55). The mortality per batch is distributed as follows: • Batch 1: 15 hives/55 hives, that is 27.3% losses • Batch 2: 0 hive/55 hives, that is 0% losses • Batch 3: 10 hives/55 hives, that is 18.2% losses • Batch 4: 3 hives/55 hives, that is 5.5% losses.

[4] = system: bee families; conditions: feeding method of MD4438; cited from earlier work

| Structure (SMILES) | Power of the bee family [1] | Prolificity of the queen [1] | Quantity of honey at the first harvest [1] | Quantity of honey at the first harvest, change versus batch I [1] | Cytotoxicity, conclusion from Table 1 [2] | Mortality of colonies (losses) ([3]; Batch 2: fed on Sep. 20, 2020, 8 mg) [%] | Mortality of colonies (losses) ([3]; Batch 3: fed on Oct. 12, 2020, 8 mg) [%] | Mortality of colonies (losses) ([3]; Batch 4: fed on Sep. 20, 2020 and Oct. 12, 2020) [%] | Effects on the prolificity of the queen and the amount of honey collected compared to PPh4-Mo2O4-EDTA [1] | Effect on queens and bee families [4] |
| --- | --- | --- | --- | --- | --- | --- | --- | --- | --- | --- |
| CC(=O)[O-].[Li+] [Li—Ac, LiCH3COO·H2O, reference compound] | 98.3 % relative to batch I | 108.8 % relative to batch I | 122.9 % relative to batch I | +22.9% |  |  |  |  |  |  |
| O.O.O.O.O.O.O=C([O-])CN(CCN(CC(=O)[O-])CC(=O)[O-])CC(=O)[O-].[Li+].[Li+].[O]=[Mo+]12[O][Mo+]1(=[O])[O]2 [Li—Mo2O4-EDTA, Li2[Mo2O4 (EDTA)]·6H2O] | 103.3 % relative to batch I | 111.7 % relative to batch I | 143.1 % relative to batch I | +43.1% | no cytotoxicity | 0 | 18.2 | 5.5 | higher effects |  |
| O.O.O.O.O.O=C([O-])CN(CCN(CC(=O)[O-])CC(=O)[O-])CC(=O)[O-].[Na+].[Na+].[O]=[Mo+]12[O][Mo+]1(=[O])[O]2 [Na—Mo2O4-EDTA, Na2[Mo2O4 (EDTA)]·5H2O] | 101.2 % relative to batch I | 113.3 % relative to batch I | 149.9 % relative to batch I | +49.9% | no cytotoxicity |  |  |  | higher effects |  |
| O=C([O-])CN(CCN(CC(=O)[O-])CC(=O)[O-])CC(=O)[O-].[O]=[Mo+]12[O][Mo+]1(=[O])[O]2.c1ccc([P+](c2ccccc2)(c2ccccc2)c2ccccc2)cc1.c1ccc([P+](c2ccccc2)(c2ccccc2)c2ccccc2)cc1 [PPh4—Mo2O4-EDTA, (PPh4)2[Mo2O4 (EDTA)]·2.5H2O] | 102.1 % relative to batch I | 107.1 % relative to batch I | 113.3 % relative to batch I | +13.3% |  |  |  |  |  | stimulating the oogenesis functions of the queens, increasing the amount of larvae, improving the quantitative development of the bee families and increasing productivity thereof |
